Data: publication PMC10746543, “Design principles for cyclin K molecular glue degraders” (Nature Chemical Biology, 2023)
Where “and” joins values, the source holds several entries; their conditions need not be identical. Identical values can stand only once.

How the values were obtained:
HEK293T cells = assay: Drug sensitivity assay (CellTiter-Glo viability) with or without MLN4924 pretreatment; assay type: cell-based, human; details: for CTG: MLN4924 yes, HEK293T, single well
Outline: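 Cas9-expressing HEK293T cells receive either vehicle or 100 nM MLN4924, then compounds 2 h afterwards. After three days, luminescence-based viability is measured and calculated relative to DMSO.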

CDK12–cyclin K = CDK12–cyclin K (Homo sapiens, UniProt Q9NYV4); assay: Lanthascreen kinase binding assay, CDK12; details: for Lanthascreen raw signal, sheet CDK12: duplicates
Protocol: Lanthascreen experiments were performed using commercially available reagents (Thermo Fisher) and according to the manufacturer’s instructions.

cyclin K = assay: Label-free quantitative mass spectrometry in MDA-MB-231 cells, cyclin K; assay type: cell-based, human
Outline: (§1)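 MDA-MB-231 cells treated 5 h with 1 µM cyclin K degrader or DMSO. Lysates digested with LysC and trypsin, then analysed by label-free diaPASEF LC-MS on a TimsTOF Pro2 with directDIA search and MS1 precursor quantification. Protein abundances scaled and analysed with limma.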

CDK12 = molecular target: T1, CDK12 (Homo sapiens, UniProt Q16531+Q9NYV4); assay: Label-free quantitative mass spectrometry in MDA-MB-231 cells, CDK12; assay type: cell-based
T1 construct: endogenous in cells; host or cells: MDA-MB-231
T1 sequence (Q9NYV4 whole entry): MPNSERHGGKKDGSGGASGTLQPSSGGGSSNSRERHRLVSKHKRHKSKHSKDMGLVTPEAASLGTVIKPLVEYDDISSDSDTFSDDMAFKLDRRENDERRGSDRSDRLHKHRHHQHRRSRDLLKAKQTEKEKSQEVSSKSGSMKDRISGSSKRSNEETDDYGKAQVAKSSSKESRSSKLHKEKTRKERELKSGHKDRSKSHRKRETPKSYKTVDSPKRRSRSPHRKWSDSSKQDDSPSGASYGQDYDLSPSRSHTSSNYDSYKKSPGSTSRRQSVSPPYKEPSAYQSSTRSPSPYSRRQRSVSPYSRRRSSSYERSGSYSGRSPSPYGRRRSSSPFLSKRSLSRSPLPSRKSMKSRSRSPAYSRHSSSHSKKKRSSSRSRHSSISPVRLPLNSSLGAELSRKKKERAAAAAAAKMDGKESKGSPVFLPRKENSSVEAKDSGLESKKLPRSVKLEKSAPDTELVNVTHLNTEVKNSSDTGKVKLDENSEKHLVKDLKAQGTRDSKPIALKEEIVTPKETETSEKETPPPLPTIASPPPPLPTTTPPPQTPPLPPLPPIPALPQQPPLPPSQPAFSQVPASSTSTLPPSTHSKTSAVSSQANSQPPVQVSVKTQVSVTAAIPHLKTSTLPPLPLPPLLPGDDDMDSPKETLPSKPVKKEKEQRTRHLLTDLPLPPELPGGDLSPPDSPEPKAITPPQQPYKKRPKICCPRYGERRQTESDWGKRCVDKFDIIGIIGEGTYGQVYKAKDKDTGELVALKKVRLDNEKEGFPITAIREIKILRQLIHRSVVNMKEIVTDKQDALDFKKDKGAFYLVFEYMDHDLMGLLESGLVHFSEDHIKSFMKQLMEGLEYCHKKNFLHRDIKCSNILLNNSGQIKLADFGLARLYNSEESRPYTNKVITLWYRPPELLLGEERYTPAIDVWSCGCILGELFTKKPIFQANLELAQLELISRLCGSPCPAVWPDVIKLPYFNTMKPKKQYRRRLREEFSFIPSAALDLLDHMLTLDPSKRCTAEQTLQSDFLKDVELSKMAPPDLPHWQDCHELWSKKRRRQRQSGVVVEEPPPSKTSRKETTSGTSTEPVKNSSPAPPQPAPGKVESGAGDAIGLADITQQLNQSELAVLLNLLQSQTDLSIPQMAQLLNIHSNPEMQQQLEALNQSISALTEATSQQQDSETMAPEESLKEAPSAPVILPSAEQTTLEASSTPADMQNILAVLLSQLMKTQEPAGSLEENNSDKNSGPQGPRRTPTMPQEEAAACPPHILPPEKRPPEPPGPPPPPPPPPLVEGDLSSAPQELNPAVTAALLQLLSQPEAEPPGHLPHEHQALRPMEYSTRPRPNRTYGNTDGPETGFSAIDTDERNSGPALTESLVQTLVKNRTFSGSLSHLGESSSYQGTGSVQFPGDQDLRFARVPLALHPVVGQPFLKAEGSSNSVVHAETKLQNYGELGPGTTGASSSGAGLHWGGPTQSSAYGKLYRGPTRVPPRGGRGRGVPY
T1 sequence (O75909 whole entry partner): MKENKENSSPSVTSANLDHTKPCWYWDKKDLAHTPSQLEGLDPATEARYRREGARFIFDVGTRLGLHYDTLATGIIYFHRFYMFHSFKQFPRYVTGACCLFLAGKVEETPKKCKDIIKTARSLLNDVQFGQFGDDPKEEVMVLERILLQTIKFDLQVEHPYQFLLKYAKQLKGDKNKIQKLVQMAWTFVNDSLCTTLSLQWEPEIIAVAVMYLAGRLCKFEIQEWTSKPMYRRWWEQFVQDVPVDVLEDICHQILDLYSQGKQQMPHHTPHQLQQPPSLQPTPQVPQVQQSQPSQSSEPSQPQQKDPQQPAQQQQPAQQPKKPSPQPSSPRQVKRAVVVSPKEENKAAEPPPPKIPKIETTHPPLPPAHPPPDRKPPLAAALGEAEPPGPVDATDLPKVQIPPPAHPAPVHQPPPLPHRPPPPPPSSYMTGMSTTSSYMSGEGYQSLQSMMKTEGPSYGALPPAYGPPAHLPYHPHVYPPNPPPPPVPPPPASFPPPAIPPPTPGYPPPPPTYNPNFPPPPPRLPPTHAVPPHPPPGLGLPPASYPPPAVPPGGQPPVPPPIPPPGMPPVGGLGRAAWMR
T1 sequence (Q16531 2-1140 limits assumed): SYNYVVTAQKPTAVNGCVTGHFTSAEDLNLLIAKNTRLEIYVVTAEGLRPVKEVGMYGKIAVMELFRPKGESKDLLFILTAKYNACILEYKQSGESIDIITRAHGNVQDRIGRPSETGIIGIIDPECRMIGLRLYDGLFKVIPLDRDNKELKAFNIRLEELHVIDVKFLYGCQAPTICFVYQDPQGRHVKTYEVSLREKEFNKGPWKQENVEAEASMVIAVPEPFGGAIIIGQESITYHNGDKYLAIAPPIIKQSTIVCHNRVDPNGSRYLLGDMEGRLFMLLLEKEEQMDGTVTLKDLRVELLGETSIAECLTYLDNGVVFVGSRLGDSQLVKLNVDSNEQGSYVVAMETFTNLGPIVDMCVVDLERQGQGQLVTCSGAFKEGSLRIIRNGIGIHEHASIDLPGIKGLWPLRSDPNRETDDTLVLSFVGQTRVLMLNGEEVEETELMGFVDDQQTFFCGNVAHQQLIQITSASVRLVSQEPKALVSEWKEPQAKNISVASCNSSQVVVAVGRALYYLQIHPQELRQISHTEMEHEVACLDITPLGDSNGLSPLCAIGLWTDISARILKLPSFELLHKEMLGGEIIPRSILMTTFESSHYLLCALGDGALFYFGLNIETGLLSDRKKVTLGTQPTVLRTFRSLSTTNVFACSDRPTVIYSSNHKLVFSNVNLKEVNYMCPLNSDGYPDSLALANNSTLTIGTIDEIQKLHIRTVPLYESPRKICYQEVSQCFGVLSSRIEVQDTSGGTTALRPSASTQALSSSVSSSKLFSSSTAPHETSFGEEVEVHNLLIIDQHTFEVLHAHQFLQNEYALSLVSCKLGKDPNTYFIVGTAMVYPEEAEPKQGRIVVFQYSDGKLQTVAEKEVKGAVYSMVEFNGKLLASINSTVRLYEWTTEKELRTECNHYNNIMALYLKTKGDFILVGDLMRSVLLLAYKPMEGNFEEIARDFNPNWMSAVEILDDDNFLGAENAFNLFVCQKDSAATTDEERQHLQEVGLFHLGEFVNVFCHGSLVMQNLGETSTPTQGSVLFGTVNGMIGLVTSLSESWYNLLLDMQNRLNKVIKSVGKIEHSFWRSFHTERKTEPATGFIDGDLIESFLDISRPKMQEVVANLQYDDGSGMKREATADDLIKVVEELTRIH
Outline: as §1

CDK13 = molecular target: T2, CDK13 (Homo sapiens, UniProt Q14004+Q16531); assay: Label-free quantitative mass spectrometry in MDA-MB-231 cells, CDK13; assay type: cell-based
T2 construct: endogenous in cells; host or cells: MDA-MB-231
T2 sequence (Q14004 whole entry): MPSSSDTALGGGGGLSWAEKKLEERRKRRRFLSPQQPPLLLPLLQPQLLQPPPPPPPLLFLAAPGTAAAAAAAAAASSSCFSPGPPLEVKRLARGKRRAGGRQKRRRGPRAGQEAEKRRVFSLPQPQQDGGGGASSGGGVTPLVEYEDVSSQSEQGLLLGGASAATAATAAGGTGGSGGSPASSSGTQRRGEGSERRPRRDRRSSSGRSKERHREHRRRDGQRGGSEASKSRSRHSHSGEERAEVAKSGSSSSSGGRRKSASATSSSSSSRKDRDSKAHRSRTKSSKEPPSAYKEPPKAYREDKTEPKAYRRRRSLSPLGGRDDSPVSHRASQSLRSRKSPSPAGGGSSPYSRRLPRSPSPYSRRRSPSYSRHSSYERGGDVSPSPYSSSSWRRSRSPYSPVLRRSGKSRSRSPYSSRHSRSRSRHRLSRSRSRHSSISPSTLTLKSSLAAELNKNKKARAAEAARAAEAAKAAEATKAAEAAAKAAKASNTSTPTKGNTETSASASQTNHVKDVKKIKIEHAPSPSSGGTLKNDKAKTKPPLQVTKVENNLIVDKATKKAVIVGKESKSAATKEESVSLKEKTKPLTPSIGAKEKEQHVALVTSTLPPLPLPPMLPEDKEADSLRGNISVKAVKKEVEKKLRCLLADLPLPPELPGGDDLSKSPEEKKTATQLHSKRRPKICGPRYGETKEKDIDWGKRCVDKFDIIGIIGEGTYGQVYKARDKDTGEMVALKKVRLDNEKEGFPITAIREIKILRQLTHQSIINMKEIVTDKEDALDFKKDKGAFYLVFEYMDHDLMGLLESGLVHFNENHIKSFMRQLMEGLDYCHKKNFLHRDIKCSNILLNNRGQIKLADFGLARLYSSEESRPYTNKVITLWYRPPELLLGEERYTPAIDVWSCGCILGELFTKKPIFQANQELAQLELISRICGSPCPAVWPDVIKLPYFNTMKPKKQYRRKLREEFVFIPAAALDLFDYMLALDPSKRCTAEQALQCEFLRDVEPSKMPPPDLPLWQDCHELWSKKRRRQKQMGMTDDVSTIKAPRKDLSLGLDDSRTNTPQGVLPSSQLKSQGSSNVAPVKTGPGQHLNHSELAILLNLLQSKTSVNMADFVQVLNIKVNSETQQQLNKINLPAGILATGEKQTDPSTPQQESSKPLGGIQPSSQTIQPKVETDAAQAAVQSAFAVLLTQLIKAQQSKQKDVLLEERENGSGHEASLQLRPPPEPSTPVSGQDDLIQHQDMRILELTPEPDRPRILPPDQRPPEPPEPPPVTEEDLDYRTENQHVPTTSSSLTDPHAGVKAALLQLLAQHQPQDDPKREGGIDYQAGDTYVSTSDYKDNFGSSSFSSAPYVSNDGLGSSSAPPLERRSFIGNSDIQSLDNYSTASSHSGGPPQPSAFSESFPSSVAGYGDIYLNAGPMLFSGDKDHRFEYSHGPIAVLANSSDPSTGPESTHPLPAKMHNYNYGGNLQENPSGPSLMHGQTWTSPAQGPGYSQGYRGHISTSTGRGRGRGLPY
T2 sequence (O75909 whole entry partner): as the sequence (O75909 whole entry partner) above
T2 sequence (Q16531 2-1140 limits assumed): as the sequence (Q16531 2-1140 limits assumed) above
Outline: as §1

[1] = label-free quantitative MS, replicate values
[2] = normalised to DMSO = 1, replicate values

`CC(C)c1nn(-c2c(Cl)cccc2Cl)c2nc(Cc3ccc(OCCO)cc3)[nH]c(=O)c12` [compound 21195] was tested, and the “viability assay signal (normalized)” value (HEK293T cells; 5 nM, + MLN4924) was 0.9981 and 0.9962, the “viability assay signal (normalized)” value (HEK293T cells; 5 nM, without MLN4924) was 1.164 and 1.103 and the “viability assay signal (normalized)” value (HEK293T cells; 10.7 nM, + MLN4924) was 1.03 and 0.9545. For the same molecule, the “viability assay signal (normalized)” value (HEK293T cells; 10.7 nM, without MLN4924) was 1.004 and 0.916, the “viability assay signal (normalized)” value (HEK293T cells; 22.9 nM, + MLN4924) was 1.044 and 1.059 and the “viability assay signal (normalized)” value (HEK293T cells; 22.9 nM, without MLN4924) was 0.9744 and 0.9831. For the same molecule, the “viability assay signal (normalized)” value (HEK293T cells; 48.9 nM, + MLN4924) was 0.9201 and 0.8826, the “viability assay signal (normalized)” value (HEK293T cells; 48.9 nM, without MLN4924) was 0.5003 and 0.5087 and the “viability assay signal (normalized)” value (HEK293T cells; 105 nM, + MLN4924) was 0.7478 and 0.7261. For the same molecule, the “viability assay signal (normalized)” value (HEK293T cells; 105 nM, without MLN4924) was 0.2946 and 0.2725, the “viability assay signal (normalized)” value (HEK293T cells; 224 nM, + MLN4924) was 0.3645 and 0.3756 and the “viability assay signal (normalized)” value (HEK293T cells; 224 nM, without MLN4924) was 0.297 and 0.2837. The “viability assay signal (normalized)” value (HEK293T cells; 478 nM, + MLN4924) was 0.2678 and 0.2737, the “viability assay signal (normalized)” value (HEK293T cells; 478 nM, without MLN4924) was 0.2806 and 0.2662 and the CTG (HEK293T cells; 2190 nM) was 32283. The “viability assay signal (normalized)” value (HEK293T cells; 2190 nM, + MLN4924) was 0.2528 and 0.2544, the “viability assay signal (normalized)” value (HEK293T cells; 2190 nM, without MLN4924) was 0.2713 and 0.2676 and the CTG (HEK293T cells; 4680 nM) was 28534 and 32644. For the same molecule, the “viability assay signal (normalized)” value (HEK293T cells; 4680 nM, + MLN4924) was 0.2234 and 0.2556, the “viability assay signal (normalized)” value (HEK293T cells; 4680 nM, without MLN4924) was 0.2632 and 0.2448 and the CTG (HEK293T cells; 10000 nM) was 27157 and 28920. The “viability assay signal (normalized)” value (HEK293T cells; 10000 nM, + MLN4924) was 0.2126 and 0.2265, the “viability assay signal (normalized)” value (HEK293T cells; 10000 nM, without MLN4924) was 0.2678 and 0.2469 and the EC50 (HEK293T cells; Homo sapiens, HEK-293T, Supplementary Table 2, HEK293T viability, 72 h, compound alone, read-out: Cellular assays EC50) was 39 nM. For the same molecule, the Toxicity rescue (HEK293T cells; Supplementary Table 2, MLN4924-mediated cytotoxicity rescue, 10 µM used where n.d.) was 226%, the IC50 (CDK12–cyclin K; Supplementary Table 2, read-out: Lanthascreen IC50 [nM] CDK12) was 31 nM and the “Lanthascreen raw signal, sheet CDK12” value (CDK12–cyclin K; compound 0.038147 nM, series r49) was 0.008046 and 0.008167. For the same molecule, the “Lanthascreen raw signal, sheet CDK12” value (CDK12–cyclin K; compound 0.152588 nM, series r49) was 0.01001 and 0.009391, the “Lanthascreen raw signal, sheet CDK12” value (CDK12–cyclin K; compound 0.610352 nM, series r49) was 0.008764 and 0.009174 and the “Lanthascreen raw signal, sheet CDK12” value (CDK12–cyclin K; compound 0.76 nM, series r25) was 0.01117 and 0.01013. The “Lanthascreen raw signal, sheet CDK12” value (CDK12–cyclin K; compound 1.02544 nM, series r1) was 0.009771 and 0.007848, the “Lanthascreen raw signal, sheet CDK12” value (CDK12–cyclin K; compound 3.15521 nM, series r1) was 0.009162 and 0.009522 and the “Lanthascreen raw signal, sheet CDK12” value (CDK12–cyclin K; compound 4.57247 nM, series r25) was 0.01016 and 0.01236. The “Lanthascreen raw signal, sheet CDK12” value (CDK12–cyclin K; compound 9.46563 nM, series r1) was 0.007787 and 0.0086, the “Lanthascreen raw signal, sheet CDK12” value (CDK12–cyclin K; compound 9.76563 nM, series r49) was 0.007441 and 0.00728 and the “Lanthascreen raw signal, sheet CDK12” value (CDK12–cyclin K; compound 13.7174 nM, series r25) was 0.01024 and 0.009436. For the same molecule, the “Lanthascreen raw signal, sheet CDK12” value (CDK12–cyclin K; compound 31.5521 nM, series r1) was 0.006914 and 0.007088, the “Lanthascreen raw signal, sheet CDK12” value (CDK12–cyclin K; compound 39.0625 nM, series r49) was 0.007229 and 0.006516 and the “Lanthascreen raw signal, sheet CDK12” value (CDK12–cyclin K; compound 41.1523 nM, series r25) was 0.009216 and 0.008226. For the same molecule, the “Lanthascreen raw signal, sheet CDK12” value (CDK12–cyclin K; compound 99.3891 nM, series r1) was 0.004636 and 0.007689, the “Lanthascreen raw signal, sheet CDK12” value (CDK12–cyclin K; compound 123.457 nM, series r25) was 0.007812 and 0.006741 and the “Lanthascreen raw signal, sheet CDK12” value (CDK12–cyclin K; compound 156.25 nM, series r49) was 0.006172 and 0.006187. The “Lanthascreen raw signal, sheet CDK12” value (CDK12–cyclin K; compound 315.521 nM, series r1) was 0.005556 and 0.004599, the “Lanthascreen raw signal, sheet CDK12” value (CDK12–cyclin K; compound 370.37 nM, series r25) was 0.006605 and 0.00608 and the “Lanthascreen raw signal, sheet CDK12” value (CDK12–cyclin K; compound 625 nM, series r49) was 0.006151 and 0.006004. The “Lanthascreen raw signal, sheet CDK12” value (CDK12–cyclin K; compound 2500 nM, series r49) was 0.005584 and 0.005705, the “Lanthascreen raw signal, sheet CDK12” value (CDK12–cyclin K; compound 3155.21 nM, series r1) was 0.006552 and 0.005285 and the “Lanthascreen raw signal, sheet CDK12” value (CDK12–cyclin K; compound 3333.33 nM, series r25) was 0.006042 and 0.006492. For the same molecule, the “Lanthascreen raw signal, sheet CDK12” value (CDK12–cyclin K; compound 10000 nM, series r25) was 0.006222 and 0.005571, the “Lanthascreen raw signal, sheet CDK12” value (CDK12–cyclin K; compound 10000 nM, series r49) was 0.005751 and 0.005801 and the “Lanthascreen raw signal, sheet CDK12” value (CDK12–cyclin K; compound 10002 nM, series r1) was 0.00595 and 0.006099. The “cyclin K depletion, result in words” value (cyclin K; MDA-MB-231 cells, 1 µM, 5 h) was “more effective at depleting cyclin K than CR8”, the CCNK peptide count (cyclin K; individual replicates, sheet EDF7) was 55.265 and 55.9786 and the CCNK peptide count (cyclin K; [1]) was 55.265 and 55.9786. The “CCNK peptide count (DMSO-normalised)” value (cyclin K; [2]) was 0.03019 and 0.03114, the “average CCNK peptide count” value (cyclin K; sheet EDF7) was 55.6218 and the CDK12 peptide count (CDK12; [1]) was 493.905 and 565.93. For the same molecule, the “CDK12 peptide count (DMSO-normalised)” value (CDK12; [2]) was 0.5487 and 0.5845, the CDK13 peptide count (CDK13; [1]) was 262.248 and 170.145 and the “CDK13 peptide count (DMSO-normalised)” value (CDK13; [2]) was 0.3901 and 0.2615.
